The values below are quoted from earlier work in US12201667B2, “Formulations for treating cramps and spasms” (LYTONE ENTERPRISE, INC., priority 2020, dated 2025).

The conditions of the data set: background statement.

Consider `C=C[C@H]1C[N@@]2CC[C@H]1C[C@H]2[C@H](O)c1ccnc2ccc(OC)cc12` [quinine, Quinine], for which the “reduction of cramp frequency” value is reported as “about a quarter”.
